In patent publication US9732094B2, “Arylquinazolines” (Merck Patent GmbH, priority 2013, dated 2017):
Like-named read-outs stand apart in the source and are kept apart here.

Columns and labels:
DNA-PK = DNA-PK (Homo sapiens (Human), UniProt P78527); assay: DNA-PK assay (biochemical), flashplate 33P-ATP kinase assay; settings: enzymatic; 5 μM ATP
In short: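 Radiometric kinase reaction in streptavidin-coated flashplates, stopped with 200 mM EDTA, then 30 min room-temperature incubation and saline washes.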

Kv11.1 (hERG) = Kv11.1 (hERG) (Homo sapiens (Human), UniProt Q12809); assay: Kv11.1 (hERG) ion channel activity (patch clamp assay), HEK293 cells transfected with hERG gene; settings: patch clamp, HEK293 transfected with hERG gene
Chain of Kv11.1 (hERG) (Q12809 whole entry): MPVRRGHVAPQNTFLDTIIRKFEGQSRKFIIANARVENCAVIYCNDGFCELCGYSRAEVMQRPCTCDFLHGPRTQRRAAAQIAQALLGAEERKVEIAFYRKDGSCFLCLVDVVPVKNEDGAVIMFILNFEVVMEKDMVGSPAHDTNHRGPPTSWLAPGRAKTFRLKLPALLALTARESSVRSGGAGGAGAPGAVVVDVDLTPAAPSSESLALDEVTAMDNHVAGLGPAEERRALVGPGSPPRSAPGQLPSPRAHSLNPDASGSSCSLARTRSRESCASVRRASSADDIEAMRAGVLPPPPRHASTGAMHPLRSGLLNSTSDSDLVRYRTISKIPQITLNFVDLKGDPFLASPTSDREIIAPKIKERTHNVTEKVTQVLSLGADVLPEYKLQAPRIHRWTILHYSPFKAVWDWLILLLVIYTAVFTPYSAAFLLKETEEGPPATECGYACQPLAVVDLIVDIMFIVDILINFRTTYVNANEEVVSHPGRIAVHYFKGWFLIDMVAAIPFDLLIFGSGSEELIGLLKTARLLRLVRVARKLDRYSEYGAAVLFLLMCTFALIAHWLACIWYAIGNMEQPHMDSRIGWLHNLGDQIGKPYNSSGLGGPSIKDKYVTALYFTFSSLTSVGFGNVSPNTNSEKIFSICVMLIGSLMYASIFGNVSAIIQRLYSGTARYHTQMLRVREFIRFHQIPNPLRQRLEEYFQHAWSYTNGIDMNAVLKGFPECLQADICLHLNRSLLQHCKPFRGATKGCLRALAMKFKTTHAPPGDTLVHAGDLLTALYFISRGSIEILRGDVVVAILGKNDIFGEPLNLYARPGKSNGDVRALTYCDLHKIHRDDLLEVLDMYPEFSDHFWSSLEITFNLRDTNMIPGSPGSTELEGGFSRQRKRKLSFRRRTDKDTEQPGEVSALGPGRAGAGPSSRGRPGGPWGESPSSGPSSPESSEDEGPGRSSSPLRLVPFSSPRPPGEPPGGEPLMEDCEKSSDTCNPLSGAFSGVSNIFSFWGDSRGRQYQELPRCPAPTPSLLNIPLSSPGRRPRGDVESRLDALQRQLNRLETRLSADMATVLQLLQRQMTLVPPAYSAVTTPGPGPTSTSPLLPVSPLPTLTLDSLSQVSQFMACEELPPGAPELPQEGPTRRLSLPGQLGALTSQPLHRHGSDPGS
Description: C) Kv11.1 (hERG) Ion Channel Activity (Patch Clamp Assay)
The patch-clamp measurement was carried out at room temperature in whole-cell configuration on human embryonic kidney cells (HEK293) which have been transfected in a stable manner with the hERG gene.
The whole-cell configurations were carried out using an automated patch clamp device (Patchliner™, Nanion Technologies, Munich). […] The glass chip has a hole of defined size to which the cell is transferred into the Gigaseal by application of a reduced pressure and brought into the whole-cell configuration. Buffer, cell suspension and test substances were added to microchannels of the chip using a Teflon-coated pipette. The cells were clamped to a holding potential of −80 mV. For measurement of substance-promoted inhibition of the Kv11.1 channel, the following voltage protocol was applied at 10-second intervals: 51 ms/−80 mV, 500 ms/+40 mV, 500 ms/−40 mV, 200 ms/−80 mV. The leakage current is subtracted by means of the P4 method. The cells were resuspended in extracellular buffer (EC) and applied to the chip. After the cell had been collected, the seal was improved by addition of a seal enhancer buffer. As soon as the whole-cell configuration had been reached, the seal enhancer buffer was washed out and replaced by extracellular buffer. The measurement started in EC for 1.5 min. DMSO (vehicle control, 0.1% of DMSO) was then applied, and the control current was recorded for 3 min. The test substance was subsequently added twice in the same concentration, and the potassium current was measured for 3.5 min in each case.
The reference substance used was the Kv11.1 (hERG) ion channel blocker quinidine. The effects of test substances and quinidine were standardised to the associated vehicle control. The effect on the Kv11.1 (hERG) channel activity was assessed from the potassium current at −40 mV. For the calculation, the current was evaluated for the respective final trace.
During the measurement, an aliquot of the test substance was taken for concentration determination. The sample was measured immediately by HPLC, and the final concentration was determined from a calibration curve.

[1] = target: DNA-PK phosphorylation at serine 2056 (Homo sapiens (Human), UniProt P78527); assay: DNA-PK phosphorylation at serine 2056 (cellular), bleomycin-treated HCT116 cells, ELISA; assay type: cell-based; settings: cellular; HCT116 cells, 10 μM bleomycin, six hours; read-out: IC50 pDNA-PK
In short: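 HCT116, MEM alpha + 10% FCS, 37 °C/10% CO2, seeded o/n. Cpd + 10 μM bleomycin, 6 h. ELISA, chemiluminescence; phospho/total DNA-PKcs ratio, DMSO = blank.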

Cc1nccnc1C(O)c1ccc(F)c(-c2ncnc3cc(N4CCOCC4)ccc23)c1 (stereo not drawn) [Example 78, [4-Fluoro-3-(7-morpholin-4-yl-quinazolin-4-yl)phenyl]-(3-methylpyrazin-2-yl)-methanol]
IC50 (DNA-PK): 3 to 7 nM
Ki (Kv11.1 (hERG); Ki [Kv1.11 hERG]): 15000 to 25000 nM
IC50 [1]: < 500 nM

CCOc1cnnc(C(O)c2ccc(F)c(-c3ncnc4cc(N5CCOCC5)ccc34)c2)c1 (stereo not drawn) [Example 79, (5-Ethoxypyridazin-3-yl)-[4-fluoro-3-(7-morpholin-4-yl-quinazolin-4-yl)phenyl]-methanol]
IC50 (DNA-PK): > 30 nM
Ki (Kv11.1 (hERG); Ki [Kv1.11 hERG]): 15000 to 25000 nM
IC50 [1]: 5000 to 10000 nM

OC(c1ccc(F)c(-c2ncnc3cc(N4CCOCC4)ccc23)c1)c1ncccc1C(F)(F)F (stereo not drawn) [Example 80, [4-Fluoro-3-(7-morpholin-4-yl-quinazolin-4-yl)-phenyl]-(3-trifluoro-methylpyridin-2-yl)-methanol]
IC50 (DNA-PK): 3 to 7 nM
Ki (Kv11.1 (hERG); read-out: Ki [Kv1.11 hERG]): > 25000 nM
IC50 [1]: 500 to 5000 nM

OC(c1ccc(F)c(-c2ncnc3cc(N4CCOCC4)ccc23)c1)c1ncccc1OC(F)F (stereo not drawn) [Example 81, (3-Difluoromethoxy-pyridin-2-yl)-[4-fluoro-3-(7-morpholin-4-yl-quinazolin-4-yl)-phenyl]methanol]
IC50 (DNA-PK): < 3 nM
Ki (Kv11.1 (hERG); read-out: Ki [Kv1.11 hERG]): > 25000 nM
IC50 [1]: < 500 nM

Cc1nccnc1[C@@H](O)c1ccc(F)c(-c2ncnc3cc(N4CCOCC4)ccc23)c1 [Example 82]
IC50 (DNA-PK): 7 to 30 nM
Ki (Kv11.1 (hERG); read-out: Ki [Kv1.11 hERG]): > 25000 nM
IC50 [1]: 500 to 5000 nM

Cc1nccnc1[C@H](O)c1ccc(F)c(-c2ncnc3cc(N4CCOCC4)ccc23)c1 [Example 83, (R)-[4-Fluoro-3-(7-morpholin-4-yl-quinazolin-4-yl)-phenyl]-(3-methyl-pyrazin-2-yl)methanol]
IC50 (DNA-PK): < 3 nM
Ki (Kv11.1 (hERG); read-out: Ki [Kv1.11 hERG]): > 25000 nM
IC50 [1]: < 500 nM

Cc1nccnc1[C@H](O)c1cc(-c2ncnc3cc(N4CCOCC4)ccc23)c(F)cc1F [Example 84, [2,4-Difluoro-5-(7-morpholin-4-yl-quinazolin-4-yl)-phenyl]-(3-methyl-pyrazin-2-yl)methanol]
IC50 (DNA-PK): 3 to 7 nM
Ki (Kv11.1 (hERG); human, HEK293 cells stably transfected with the hERG gene, Ki [Kv1.11 hERG]): 15000 to 25000 nM
IC50 [1]: < 500 nM

Cc1nccnc1C(O)c1cc(-c2ncnc3cc(N4CCOCC4)ccc23)c(F)cc1F (stereo not drawn) [Example 86]
IC50 (DNA-PK): < 3 nM
Ki (Kv11.1 (hERG); read-out: Ki [Kv1.11 hERG]): > 25000 nM
IC50 [1]: < 500 nM

COc1cncnc1C(O)c1ccc(F)c(-c2ncnc3cc(N4CCOCC4)ccc23)c1 (stereo not drawn) [Example 87, [4-Fluoro-3-(7-morpholin-4-yl-quinazolin-4-yl)-phenyl]-(5-methoxy-pyrimidin-4-yl)-methanol]
IC50 (DNA-PK): < 3 nM
Ki (Kv11.1 (hERG); Ki [Kv1.11 hERG]): 15000 to 25000 nM
IC50 [1]: < 500 nM

Cc1cnc(C)c(C(O)c2cc(-c3ncnc4cc(N5CCOCC5)ccc34)c(F)cc2F)n1 (stereo not drawn) [Example 88]
IC50 (DNA-PK): < 3 nM
Ki (Kv11.1 (hERG); Ki [Kv1.11 hERG]): 15000 to 25000 nM
IC50 [1]: < 500 nM

OC(c1cc(-c2ncnc3cc(N4CCOCC4)ccc23)ccc1Cl)c1ncnc2ccsc12 (stereo not drawn) [Example 89, [2-Chloro-5-(7-morpholin-4-yl-quinazolin-4-yl)-phenyl]thieno[3,2-d}-pyrimidin-4-ylmethanol]
IC50 (DNA-PK): 3 to 7 nM
Ki (Kv11.1 (hERG); Ki [Kv1.11 hERG]): 10000 to 15000 nM
IC50 [1]: < 500 nM

OC(c1cc(-c2ncnc3cc(N4CCOCC4)ccc23)c(F)cc1F)c1ncnc2sccc12 (stereo not drawn) [Example 90, [2,4-Difluoro-5-(7-morpholin-4-yl-quinazolin-4-yl)-phenyl]thieno[2,3-d}-pyrimidin-4-ylmethanol]
IC50 (DNA-PK): < 3 nM
Ki (Kv11.1 (hERG); read-out: Ki [Kv1.11 hERG]): > 25000 nM
IC50 [1]: < 500 nM

Cn1c(C(O)c2ccc(F)c(-c3ncnc4cc(N5CCOCC5)ccc34)c2)cccc1=O (stereo not drawn) [Example 91, 6-{[4-Fluoro-3-(7-morpholin-4-yl-quinazolin-4-yl)-phenyl]hydroxy-methyl}-1-methyl-1H-pyridin-2-one]
IC50 (DNA-PK): < 3 nM
Ki (Kv11.1 (hERG); read-out: Ki [Kv1.11 hERG]): > 25000 nM
IC50 [1]: < 500 nM

O=c1ccc(C(O)c2cc(-c3ncnc4cc(N5CCOCC5)ccc34)c(F)cc2Cl)n[nH]1 (stereo not drawn) [Example 92, 3-[[2-Chloro-4-fluoro-5-(7-morpholino-quinazolin-4-yl)phenyl]-hydroxymethyl]-1H-pyridazin-6-one]
IC50 (DNA-PK): < 3 nM
Ki (Kv11.1 (hERG); read-out: Ki [Kv1.11 hERG]): > 25000 nM
IC50 [1]: < 500 nM

CCn1nc(C(O)c2cc(-c3ncnc4cc(N5CCOCC5)ccc34)c(F)cc2Cl)ccc1=O (stereo not drawn) [Example 93, 6-{[2-Chloro-4-fluoro-5-(7-morpholin-4-yl-quinazolin-4-y1)phenyl]-hydroxymethyl}-2-ethyl-2H-pyridazin-3-one]
IC50 (DNA-PK): 3 to 7 nM
Ki (Kv11.1 (hERG); Ki [Kv1.11 hERG]): 10000 to 15000 nM
IC50 [1]: < 500 nM

NCCn1nc(C(O)c2cc(-c3ncnc4cc(N5CCOCC5)ccc34)c(F)cc2Cl)ccc1=O (stereo not drawn) [Example 94, 2-(2-Amino-ethyl)-6-{[2-Chloro-4-fluoro-5-(7-morpholin-4-yl-quinazolin-4-yl)phenyl]-hydroxymethyl}-2H-pyridazin-3-one]
IC50 (DNA-PK): 7 to 30 nM
Ki (Kv11.1 (hERG); read-out: Ki [Kv1.11 hERG]): > 25000 nM
IC50 [1]: 10000 to 30000 nM

O=c1ccc(C(O)c2cc(-c3ncnc4cc(N5CCOCC5)ccc34)c(F)cc2Cl)nn1C1CC1 (stereo not drawn) [Example 95, 6-{[2-Chloro-4-fluoro-5-(7-morpholin-4-yl-quinazolin-4-yl)phenyl]-hydroxymethyl}-2-cyclopropyl-2H-pyridazin-3-one]
IC50 (DNA-PK): 7 to 30 nM
Ki (Kv11.1 (hERG); read-out: Ki [Kv1.11 hERG]): > 25000 nM
IC50 [1]: 500 to 5000 nM

CCn1nc(C(O)c2cc(-c3ncnc4cc(N5CCOCC5)ccc34)c(F)cc2Cl)ccc1=O (stereo not drawn) [Example 96, 6{[2-Chloro-4-fluoro-5-(7-morpholin-4-yl-quinazolin-4-yl)phenyl]-hydroxymethyl}-2-ethyl-2H-pyridazin-3-one]
IC50 (DNA-PK): 7 to 30 nM
Ki (Kv11.1 (hERG); read-out: Ki [Kv1.11 hERG]): > 25000 nM
IC50 [1]: 500 to 5000 nM

CCn1nc(C(O)c2cc(-c3ncnc4cc(N5CCOCC5)ccc34)c(F)cc2Cl)ccc1=O (stereo not drawn) [Example 97, 6-{[2-Chloro-4-fluoro-5-(7-morphohn-4-yl-quinazolin-4-yl)phenyl]-hydroxymethyl}-2-ethyl-2H-pyridazin-3-one]
IC50 (DNA-PK): < 3 nM
Ki (Kv11.1 (hERG); read-out: Ki [Kv1.11 hERG]): > 25000 nM
IC50 [1]: 500 to 5000 nM

NC(=O)Cn1nc(C(O)c2cc(-c3ncnc4cc(N5CCOCC5)ccc34)c(F)cc2Cl)ccc1=O (stereo not drawn) [Example 98, 2-{3-{[2-Chloro-4-fluoro-5-(7-morpholin-4-ylquinazolin-4-yl)-phenyl]hydroxymethyl}-6-oxo-6H-pyridazin-1-yl)acetamide]
IC50 (DNA-PK): 3 to 7 nM
Ki (Kv11.1 (hERG); read-out: Ki [Kv1.11 hERG]): > 25000 nM
IC50 [1]: 10000 to 30000 nM

O=c1ccc(C(O)c2cc(-c3ncnc4cc(N5CCOCC5)ccc34)c(F)cc2Cl)nn1CCO (stereo not drawn) [Example 99, 6-{[2-Chloro-4-fluoro-5-(7-morpholin-4-yl-quinazolin-4-yl)phenyl]-hydroxymethyl}-2-(2-hydroxy-ethyl)-2H-pyridazin-3-one]
IC50 (DNA-PK): 3 to 7 nM
Ki (Kv11.1 (hERG); read-out: Ki [Kv1.11 hERG]): > 25000 nM
IC50 [1]: 500 to 5000 nM

CC(C#N)Oc1ccc(C(O)c2cc(-c3ncnc4cc(N5CCOCC5)ccc34)c(F)cc2Cl)nn1 (stereo not drawn) [Example 101, 2-(6-{[2-Chloro-4-fluoro-5-(7-morpholin-4-yl-quinazolin-4-yl)-phenyl)hydroxy-methyl}pyridazin-3-yloxy)propionitrile]
IC50 (DNA-PK): < 3 nM
Ki (Kv11.1 (hERG); Ki [Kv1.11 hERG]): 10000 to 15000 nM
IC50 [1]: < 500 nM

OCCOc1nccnc1C(O)c1ccc(F)c(-c2ncnc3cc(N4CCOCC4)ccc23)c1 (stereo not drawn) [Example 105, 2-(3-{[4-fluoro-3-(7-morpholin-4-yl-quinazolin-4-yl)-phenyl]hydroxy-methyl}pyrazin-2-yl-oxy)ethanol]
IC50 (DNA-PK): 7 to 30 nM
Ki (Kv11.1 (hERG); read-out: Ki [Kv1.11 hERG]): > 25000 nM
IC50 [1]: 10000 to 30000 nM

OCCNc1nccnc1C(O)c1ccc(F)c(-c2ncnc3cc(N4CCOCC4)ccc23)c1 (stereo not drawn) [Example 106, 2-(3-{[4-fluoro-3-(7-morpholin-4-yl-quinazolin-4-yl)-phenyl]hydroxy-methyl}pyrazin-2-yl-amino)ethanol]
IC50 (DNA-PK): 7 to 30 nM
Ki (Kv11.1 (hERG); Ki [Kv1.11 hERG]): 15000 to 25000 nM
IC50 [1]: 5000 to 10000 nM

N#CCCOc1ccc(C(O)c2cc(-c3ncnc4cc(N5CCOCC5)ccc34)c(F)cc2Cl)nn1 (stereo not drawn) [Example 107, 3-(6-{[2-Chloro-4-fluoro-5-(7-morpholin-4-yl-quinazolin-4-yl)-phenyl]hydroxy-methyl}pyridazin-3-yl-oxy)propionitrile]
IC50 (DNA-PK): 3 to 7 nM
Ki (Kv11.1 (hERG); read-out: Ki [Kv1.11 hERG]): > 25000 nM
IC50 [1]: 500 to 5000 nM

CSc1ccc(C(O)c2cc(-c3ncnc4cc(N5CCOCC5)ccc34)c(F)cc2Cl)nn1 (stereo not drawn) [Example 108, [2-Chloro-4-fluoro-5-(7-morpholin-4-yl-quinazolin-4-yl)-phenyl]-(6-methyl-sulfanylpyridazin-3-yl)methanol]
IC50 (DNA-PK): 3 to 7 nM
Ki (Kv11.1 (hERG); Ki [Kv1.11 hERG]): 15000 to 25000 nM
IC50 [1]: < 500 nM

COc1cc(C)c(C(O)c2cc(-c3ncnc4cc(N5CCOCC5)ccc34)c(F)cc2Cl)nn1 (stereo not drawn) [Example 109, [2-Chloro-4-fluoro-5-(7-morpholin-4-yl-quinazolin-4-yl)-phenyl]-(6-methoxy-4-methylpyridazin-3-yl)methanol]
IC50 (DNA-PK): > 30 nM
Ki (Kv11.1 (hERG); read-out: Ki [Kv1.11 hERG]): > 25000 nM
IC50 [1]: 5000 to 10000 nM

COc1nnc(C(O)c2cc(-c3ncnc4cc(N5CCOCC5)ccc34)c(F)cc2Cl)cc1C (stereo not drawn) [Example 110, [2-Chloro-4-fluoro-5-(7-morpholin-4-yl-quinazolin-4-yl)-phenyl]-(6-methoxy-5-methylpyridazin-3-yl)methanol]
IC50 (DNA-PK): 7 to 30 nM
Ki (Kv11.1 (hERG); Ki [Kv1.11 hERG]): 10000 to 15000 nM
IC50 [1]: 500 to 5000 nM

NC(=O)COc1ccc(C(O)c2cc(-c3ncnc4cc(N5CCOCC5)ccc34)c(F)cc2Cl)nn1 (stereo not drawn) [Example 111, 2-(6-{[2-Chloro-4-fluoro-5-(7-morpholin-4-yl-quinazolin-4-yl)-phenyl]hydroxy-methyl}pyridazin-3-yloxy)acetamide]
IC50 (DNA-PK): 3 to 7 nM
Ki (Kv11.1 (hERG); read-out: Ki [Kv1.11 hERG]): > 25000 nM
IC50 [1]: 5000 to 10000 nM
